Laboratory results as given in US20250361217A1, “FATTY ACID COMPOUNDS” (University of Pittsburgh - Of the Commonwealth System of …, priority 2022, published 2025).

Columns and labels:
liver gene expression = assay: RNA-Sequencing of livers with IPA pathway analysis; assay type: in vivo, mice
Procedure: Bioinformatics and Biostatistics Analyses on RNA Sequencing Data Transcriptome sequencing was performed on mice samples from each group with four replicates per condition. Quality control was first performed on the raw sequencing data by tool FastQC. Then low-quality reads and adapter sequences were trimmed out by tool Trimmomatic. After pre-processing, the surviving reads were aligned into mouse reference genome mm10 by STAR aligner. Gene counts per gene per sample were quantified by function—quantMode GeneCounts supported by the STAR aligner. Gene expression normalization was performed by R package DEseq2.
Given the gene expression profile, differential expression analyses were performed based on gene counts by DEseq2 package. Five pairwise comparisons were analyzed: LFD+Veh vs LFD+11D3, HFD+Veh vs HFD+11D3, HFD+Veh vs HFD+11U3, HFD+Veh vs HFD+11U3-2M and LFD+Veh vs HFD+Veh. Differentially expressed genes (DEGs) were defined by FDR=5% and absolute fold-change equal to or greater than 1.5. For the downstream analysis, Ingenuity Pathways Analysis (IPA) was employed to perform pathway enrichment analysis on the DEGs. Significant pathways were defined by FDR=5%. Regulation directions were measured by Z-scores, where a positive Z-score indicates activation of the pathway and a negative Z-score means inhibition, while some pathways show out unknown or mix of regulation directions.

liver of HFD mice = assay: Untargeted/targeted metabolomic mass spectrometry of liver (sphingolipids, acylcarnitine); assay type: in vivo
Procedure: Liver powder (50 mg) was resuspended in 500 μL of H2O and extracted using ethyl acetate (1 mL). Phases were separated by centrifugation for 5 min at 1500 g at 4° C. and the organic phase was collected and dried under nitrogen gas. For acetonitrile precipitation, 200 μL of ice-cold ACN was added to liver tissue homogenized in water and vortexed thoroughly. Samples were centrifuged for 5 min at 1500 g at 4° C. and all the phases were removed and dried under nitrogen gas. Dried samples were reconstituted with McOH and transferred to clean mass spectrometry vials for analysis.
Mass spectrometry data was collected using a Q Exactive Orbitrap (ThermoFisher Scientific) to obtain high-resolution accurate mass data in positive and negative ion modes. Two different Chromatography system were used: The organic phase from Bligh and Dyer extraction sample was performed using a 100×2 mm Luna® 5 μm C18(2) column (phenomenex,00D-4252-BO) with a 0-100% gradient of solvent B (90:10 isopropyl alcohol, ACS reagent for HPLC (Honeywell #AH323):ACN, 0.1% formic acid, reagent grade (Sigma #F0507) and solvent A (70:30 Water, Optima™ LC/MS Grade (Fisher #W6500):acetonitrile, 0.1% formic acid) over 20 min, followed by 100% solvent B for 6 min before a return to 0% solvent B for 4 min at a flow rate of 0.650 mL/min. Chromatography for aqueous Bligh and Dyer phase and acetonitrile precipitation extract was performed using the same column with a gradient of 10-100% solvent D (ACN, 0.1% formic acid) and solvent C (water, 0.1% formic acid) over 18 min, followed by 100% solvent D for 6 min before returning to 10% solvent D for 6 min at a flow rate of 0.650 mL/minute. […]
Ceramide and carnitine conjugates were extracted in the presence of ceramide standard (18:1/17:0) (N-heptadecanoyl-D-erythro-sphingosine, Avanti Polar Lipids #860517) using ethyl acetate and quantified using mass spectrometry.
Mass spectrometry data was collected using an API 5000 LC/MS/MS in positive ion mode. […] Quantitation of analyte and internal standard peak areas was determined using the Quantitation Wizard in Sciex's Analyst® Software.

[1] = FuFA-CoA detection in liver by mass spectrometry; assay type: in vivo; settings: livers of FuFA-treated HFD mice
Procedure: Liver powder (50 mg) was used and dissolved in plastic Eppendorf with […] of milli-Q purified water and vortexed well. Then, 200 μl of ACN containing 400 nM n-Heptadecanoyl coenzyme A lithium salt as internal standard (C17-CoA standard, NuCheck) was added, vortexed thoroughly, and centrifuged for 4 min at 10000 g at 4° C. For protein precipitation, the supernatant was transferred to a new tube and 20 μl was diluted with 180 μl of ACN/water (4:1 ratio) in clean mass spectrometry vials for analysis of CoA's.
FuFA-CoA in liver and primary hepatocytes were detected with an API 5000™ mass spectrometer after chromatographic separation using a 150×2 mm Luna® 5 μm C8 100 C8 Å LC column (OOF-4040-BO) with 5% solvent B (ACN, 0.1% ammonium) at a flow rate of 0.35 ml/min using a system solvent started in 5% solvent B (ACN, 0.1% ammonium hydroxide) and 95% of solvent A(water+0.1% ammonium hydroxide) for 30 seconds, followed by an increase from 5-65% gradient of solvent B over 6 min, followed by re equilibrate condition. Quantitation of analyte and internal standard peak areas was determined using the Quantitation Wizard in Sciex's Analyst® Software.

With CCCc1ccc(CCCCCCCCCC(C)(C)C(=O)O)o1 [11U3-2M, 2,2-Dimethyl-11-(5-propylfuran-2-yl)undecanoic acid] the “activated pathways (Ingenuity Pathway Analysis)” value (liver gene expression; liver RNA-Seq DEGs vs HFD+veh) was “FA β-oxidation was the most activated pathway”, the “LncRNA GM10804 downregulated” value (liver gene expression; liver RNA-Seq vs HFD+veh) was 5 fold and the “LncRNA GM15441 increased” value (liver gene expression; liver RNA-Seq vs HFD+veh) was 137 fold. The “increase in PDK4 gene” value (liver gene expression; liver RNA-Seq vs HFD+veh) was 7 fold, the “liver metabolites changed by HFD (untargeted metabolomics)” value (liver of HFD mice; 50 mg/kg) was “returned the liver to its basal condition” and the “liver sphingomyelins SM(18:1/16:0), SM(18:1/20:0), SM(18:1/24:0) vs HFD+veh” value (liver of HFD mice; effect relative to that on ceramides) was “analogous”. The “liver ceramides (e.g. Cer(18:1/16:0), Cer(18:1/20:0), total ceramide) vs HFD+veh” value (liver of HFD mice; targeted quantification) was “significant reduction” and the “FuFA-CoA conjugate in liver (ratio to C17:0-CoA)” value [1] was “significantly elevated”.
